Patent US20240190855A1 (Relay Therapeutics, Inc., priority 2021, published 2024)

Biological target: T1, CDK2/Cyclin E complex (Homo sapiens, UniProt P24941)
T1 construct: purchased Eurofins 14-475
Test: CDK2/Cyclin E fluorescence-based microfluidic mobility shift assay (CDK2 Biochemical Caliper Assay)
Settings: read-out: Biochemical CDK2/CyclinE Caliper IC50
Procedure, shortened: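 Microfluidic mobility-shift readout after EDTA termination measured phosphorylation of fluorescent FL Peptide 18 (1.5 uM final) in a 20 hr room-temperature reaction. Compounds were tested at 11 concentrations (3-fold).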

Structure (SMILES)	IC50 [nM]
COCc1cc2c(Nc3cc([C@@H]4CC[C@H](Oc5cccnc5)C4)[nH]n3)nccn2n1 (single isomer, unassigned) [Example 526]	100 to 250
CC(C)NC(=O)O[C@@H]1CC[C@H](c2cc(Nc3ccc4c(n3)C(C)(C)NC4=O)n[nH]2)C1 (single isomer, unassigned) [Example 527]	≤ 100
CC(C)NC(=O)O[C@H]1CC[C@@H](c2cc(Nc3ccc4c(n3)C(C)(C)NC4=O)n[nH]2)C1 (single isomer, unassigned) [Example 528]	≤ 100
CNC(=O)O[C@@H]1CC[C@H](c2cc(Nc3ccc4c(n3)C(C)(C)NC4=O)n[nH]2)C1 (single isomer, unassigned) [Example 529]	≤ 100
CNC(=O)O[C@H]1CC[C@@H](c2cc(Nc3ccc4c(n3)C(C)(C)NC4=O)n[nH]2)C1 (single isomer, unassigned) [Example 530]	≤ 100
COCc1cc(C(=O)Nc2cc([C@@H]3CC[C@H](Oc4nccnc4C(C)C)C3)[nH]n2)n(C)n1 (single isomer, unassigned) [Example 531]	≤ 100
COCc1cc(C(=O)Nc2cc([C@H]3CC[C@@H](Oc4nncc5cnccc45)C3)[nH]n2)n(C)n1 (single isomer, unassigned) [Example 534]	≤ 100
COCc1cc(C(=O)Nc2cc([C@@H]3CC[C@H](Oc4nncc5cnccc45)C3)[nH]n2)n(C)n1 (single isomer, unassigned) [Example 535]	250 to 1000
COCc1cc(C(=O)Nc2cc([C@@H]3C[C@H](Oc4cnccc4C4CC4)CO3)[nH]n2)n(C)n1 (single isomer, unassigned) [Example 538]	1000 to 100000
COCc1cc(C(=O)Nc2cc([C@H]3C[C@@H](Oc4cnccc4C4CC4)CO3)[nH]n2)n(C)n1 (single isomer, unassigned) [Example 539]	250 to 1000
COCc1cc(C(=O)Nc2cc([C@H]3CC[C@@H](c4ccc(C)[nH]c4=O)C3)[nH]n2)n(C)n1 (single isomer, unassigned) [Example 542]	250 to 1000
COCc1cc(C(=O)Nc2cc([C@@H]3CC[C@H](c4ccc(C)[nH]c4=O)C3)[nH]n2)n(C)n1 (single isomer, unassigned) [Example 543]	1000 to 100000
Cc1ncccc1O[C@@H]1CC[C@H](c2cc(Nc3ccc4c(c3)C(C)(C)NC4=O)n[nH]2)C1 (single isomer, unassigned) [Example 546]	≤ 100
Cc1ncccc1O[C@H]1CC[C@@H](c2cc(Nc3ccc4c(c3)C(C)(C)NC4=O)n[nH]2)C1 (single isomer, unassigned) [Example 547]	≤ 100
CC(C)NC(=O)O[C@@H]1CC[C@H](c2cc(Nc3ccc4c(c3)C(C)(C)NC4=O)n[nH]2)C1 (single isomer, unassigned) [Example 548]	≤ 100
CC(C)NC(=O)O[C@H]1CO[C@@H](c2cc(Nc3ccc4c(c3)C(C)(C)NC4=O)n[nH]2)C1 (single isomer, unassigned) [Example 549]	≤ 100
COCc1cc(C(=O)Nc2cc([C@H]3CC[C@@H](Oc4nnccc4C4CCC4)C3)[nH]n2)n(C)n1 (single isomer, unassigned) [Example 550]	≤ 100
COCc1cc(C(=O)Nc2cc([C@@H]3CC[C@H](Oc4nnccc4C4CCC4)C3)[nH]n2)n(C)n1 (single isomer, unassigned) [Example 551]	≤ 100
COCc1cc(C(=O)Nc2cc([C@H]3CC[C@@H](c4ccc(C(C)C)cn4)C3)[nH]n2)n(C)n1 (single isomer, unassigned) [Example 552]	1000 to 100000
COCc1cc(C(=O)Nc2cc([C@@H]3CC[C@H](c4ccc(C(C)C)cn4)C3)[nH]n2)n(C)n1 (single isomer, unassigned) [Example 553]	1000 to 100000
COCc1cc(C(=O)Nc2cc([C@H]3CC[C@@H](Cc4ncc(C)s4)C3)[nH]n2)n(C)n1 (single isomer, unassigned) [Example 554]	1000 to 100000
COCc1cc(C(=O)Nc2cc([C@@H]3CC[C@H](Cc4ncc(C)s4)C3)[nH]n2)n(C)n1 (single isomer, unassigned) [Example 555]	250 to 1000
COCc1cc(C(=O)Nc2cc([C@@H]3CC[C@@H](Cc4ncc(C)s4)C3)[nH]n2)n(C)n1 (single isomer, unassigned) [Example 556]	1000 to 100000
COCc1cc(C(=O)Nc2cc([C@H]3CC[C@H](Cc4ncc(C)s4)C3)[nH]n2)n(C)n1 (single isomer, unassigned) [Example 557]	1000 to 100000
CC(C)NC(=O)O[C@@H]1CC[C@H](c2cc(Nc3cncc(OCCO)n3)n[nH]2)C1 (single isomer, unassigned) [Example 563]	≤ 100
CC(C)NC(=O)O[C@H]1CC[C@@H](c2cc(Nc3cncc(OCCO)n3)n[nH]2)C1 (single isomer, unassigned) [Example 564]	≤ 100
CC1(C)NC(=O)c2ccc(Nc3cc([C@H]4CC[C@@H](Oc5cccnc5)C4)[nH]n3)cc21 (single isomer, unassigned) [Example 565]	≤ 100

Structure (SMILES)	IC50 [nM]
COCc1cc(C(=O)Nc2cc([C@H]3C[C@H](OC)[C@@H](OC(=O)NC(C)C)C3)[nH]n2)n(C)n1 (single isomer, unassigned) [Example 567]	1000 to 100000
COCc1cc(C(=O)Nc2cc([C@@H]3C[C@@H](OC)[C@H](OC(=O)NC(C)C)C3)[nH]n2)n(C)n1 (single isomer, unassigned) [Example 568]	1000 to 100000
COCc1cc(C(=O)Nc2cc([C@@H]3C[C@H](OC)[C@@H](OC(=O)NC(C)C)C3)[nH]n2)n(C)n1 (single isomer, unassigned) [Example 569]	1000 to 100000
COCc1cc(C(=O)Nc2cc([C@H]3C[C@@H](OC)[C@H](OC(=O)NC(C)C)C3)[nH]n2)n(C)n1 (single isomer, unassigned) [Example 570]	1000 to 100000
COCc1cc(C(=O)Nc2cc([C@H]3CC[C@@H](c4ccc(C)nn4)C3)[nH]n2)n(C)n1 (single isomer, unassigned) [Example 572]	1000 to 100000
COCc1cc(C(=O)Nc2cc([C@@H]3CC[C@H](c4ccc(C)nn4)C3)[nH]n2)n(C)n1 (single isomer, unassigned) [Example 573]	1000 to 100000
COCc1cc(C(=O)Nc2cc([C@@H]3CC[C@@H](c4ccc(C)nn4)C3)[nH]n2)n(C)n1 (single isomer, unassigned) [Example 574]	1000 to 100000
COCc1cc(C(=O)Nc2cc([C@H]3CC[C@H](c4ccc(C)nn4)C3)[nH]n2)n(C)n1 (single isomer, unassigned) [Example 575]	1000 to 100000
COCc1cc(C(=O)Nc2cc([C@H]3CC[C@@H](c4cnc(C)cn4)C3)[nH]n2)n(C)n1 (single isomer, unassigned) [Example 576]	1000 to 100000
COCc1cc(C(=O)Nc2cc([C@@H]3CC[C@H](c4cnc(C)cn4)C3)[nH]n2)n(C)n1 (single isomer, unassigned) [Example 577]	1000 to 100000
COCc1cc(C(=O)Nc2cc([C@@H]3CC[C@@H](c4cnc(C)cn4)C3)[nH]n2)n(C)n1 (single isomer, unassigned) [Example 578]	1000 to 100000
COCc1cc(C(=O)Nc2cc([C@H]3CC[C@H](c4cnc(C)cn4)C3)[nH]n2)n(C)n1 (single isomer, unassigned) [Example 579]	1000 to 100000
COCc1cc2c(Nc3cc([C@@H]4C[C@H](OC(=O)N5[C@@H](C)CC[C@@H]5C)CO4)[nH]n3)nccn2n1 (single isomer, unassigned) [Example 580]	≤ 100
COCc1cc2c(Nc3cc([C@H]4C[C@@H](OC(=O)N5[C@@H](C)CC[C@@H]5C)CO4)[nH]n3)nccn2n1 (single isomer, unassigned) [Example 581]	≤ 100
CC(C)c1[nH]ncc1O[C@@H]1CO[C@H](c2cc(Nc3nccn4nccc34)n[nH]2)C1 (single isomer, unassigned) [Example 584]	1000 to 100000
CC(C)c1[nH]ncc1O[C@H]1CO[C@@H](c2cc(Nc3nccn4nccc34)n[nH]2)C1 (single isomer, unassigned) [Example 585]	1000 to 100000
C[C@H]1CC[C@H](C)N1C(=O)O[C@@H]1CO[C@H](c2cc(Nc3ccc4c(c3)C(C)(C)NC4=O)n[nH]2)C1 (single isomer, unassigned) [Example 590]	≤ 100
C[C@H]1CC[C@H](C)N1C(=O)O[C@H]1CO[C@@H](c2cc(Nc3ccc4c(c3)C(C)(C)NC4=O)n[nH]2)C1 (single isomer, unassigned) [Example 591]	≤ 100
COCc1cc(C(=O)Nc2cc([C@H]3CC[C@@H](c4ncc(C)cn4)C3)[nH]n2)n(C)n1 (single isomer, unassigned) [Example 592]	1000 to 100000
COCc1cc(C(=O)Nc2cc([C@@H]3CC[C@H](c4ncc(C)cn4)C3)[nH]n2)n(C)n1 (single isomer, unassigned) [Example 594]	1000 to 100000
COCc1cc(C(=O)Nc2cc([C@H]3CC[C@H](c4ncc(C)cn4)C3)[nH]n2)n(C)n1 (single isomer, unassigned) [Example 595]	1000 to 100000
COCc1cc(C(=O)Nc2cc([C@@H]3CC[C@@H](c4ncc(C)cn4)C3)[nH]n2)n(C)n1 (single isomer, unassigned) [Example 596]	1000 to 100000
COCc1cc(C(=O)Nc2cc([C@H]3CC[C@@H](c4ccc(C)cn4)C3)[nH]n2)n(C)n1 (single isomer, unassigned) [Example 597]	1000 to 100000
COCc1cc(C(=O)Nc2cc([C@@H]3CC[C@H](c4ccc(C)cn4)C3)[nH]n2)n(C)n1 (single isomer, unassigned) [Example 598]	1000 to 100000
COCc1cc(C(=O)Nc2cc([C@H]3CC[C@H](c4ccc(C)cn4)C3)[nH]n2)n(C)n1 (single isomer, unassigned) [Example 599]	1000 to 100000
COCc1cc(C(=O)Nc2cc([C@@H]3CC[C@@H](c4ccc(C)cn4)C3)[nH]n2)n(C)n1 (single isomer, unassigned) [Example 600]	1000 to 100000
COCc1cc(C(=O)Nc2cc([C@H]3CC[C@@H](c4cc(C(C)C)ncn4)C3)[nH]n2)n(C)n1 (single isomer, unassigned) [Example 601]	1000 to 100000
